Laboratory results from PMC11317573 (Proceedings of the National Academy of Sciences of the …, 2024).

Molecular target: T1, RdsA (YhiN) (Escherichia coli, UniProt P37631)
T1 sequence (P37631 1-400): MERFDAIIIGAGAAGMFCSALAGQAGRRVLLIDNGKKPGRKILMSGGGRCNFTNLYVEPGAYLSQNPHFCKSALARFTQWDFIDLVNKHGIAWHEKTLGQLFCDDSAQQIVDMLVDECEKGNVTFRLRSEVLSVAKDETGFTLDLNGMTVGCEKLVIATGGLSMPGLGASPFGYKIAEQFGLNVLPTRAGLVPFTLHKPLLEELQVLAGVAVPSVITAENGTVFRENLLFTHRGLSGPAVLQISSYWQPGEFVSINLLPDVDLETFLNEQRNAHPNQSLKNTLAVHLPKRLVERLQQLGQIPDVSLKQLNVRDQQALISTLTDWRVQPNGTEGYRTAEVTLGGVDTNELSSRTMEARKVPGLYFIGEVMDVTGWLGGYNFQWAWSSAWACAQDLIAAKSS
Assay: UV/visible spectrum of purified protein
Format: binding
Settings: as purified; noncovalent

holoprotein fraction (oxidized flavin): 61%
SMILES: Cc1cc2nc3c(=O)[nH]c(=O)nc-3n(C[C@H](O)[C@H](O)[C@H](O)COP(=O)(O)OP(=O)(O)OC[C@H]3O[C@@H](n4cnc5c(N)ncnc54)[C@H](O)[C@@H]3O)c2cc1C [FAD]
